2 compounds from patent publication US11096968B2, “Use of anti-aging glycoprotein for enhancing survival of neurosensory precursor cells” (PROTOKINETIX INC., priority 2016, dated 2021) can be followed below.

The subject of data set [1] is prostaglandin E2 (PGE2) secreted by degenerating retinal explants. Briefly: PGE2 ELISA of explant medium from ex vivo retinal explant/RPE co-culture. The class given is cell-based, rat. As to conditions: 4 mg/ml AAGP present for the first day, medium collected after 10 days of co-culture; n=3; p<0.05; without AAGP ~20 pg/ml. The protocol:
(§1) FIG. 2 illustrates that AAGP™ reduces the amount of prostaglandin E2 (PGE2) secreted by degenerating explants and the level of COX-2 expression. PGE2 is toxic to photoreceptor precursor cells (PPCs). (A) Rat retinal explants were cultured in explant medium with or without 4 mg/ml AAGP (n=3 for each condition). Explant media was replaced after 24 hours and replenished every other day with medium not containing AAGP. After ten days, explant medium was collected and processed for PGE2 ELISA. Histograms represent the amount of PGE2 (pg/ml) present in the explant medium. (B) COX-2 expression was assessed by RT-qPCR in stressed ARPE-19 cells in the presence or absence of 4 mg/ml AAGP (n=4). Histograms represent fold change in COX-2 expression, normalized to GAPDH. […]
(§2) Firstly, the amount of PGE2 produced is determined within the ex vivo system under normal culture conditions and after media is supplemented with 4 mg/ml AAGP for the first 24 hours of co-culture. Three equal-sized retinal quadrants, measuring ˜10 mm^2 each, and are analyzed for each condition. Explant media are collected at the end of 10 days and assessed for concentration of PGE2 by enzyme-linked immunosorbent assay (ELISA; R&D Systems). PGE2 induced reduction in metabolic activity, contributing to cell death, is assessed in PPCs cultured in isolation using a Thiazolyl Blue Tetrazolium Bromide (MTT) assay (Sigma).
(In general: In an ELISA, binding on a coated surface is turned into a signal by an enzyme label.)

The test system of data set [2] is photoreceptor precursor cells (PPCs). Briefly: PPC survival in ex vivo co-culture system, viable labelled PPCs counted by FACS. The data set is classed as cell-based, human. The following applies: PPCs pre-treated 24 hours with 4 mg/ml AAGP, 10 days of co-culture. The protocol:
FIG. 3 illustrates that Cell survival is enhanced by pre-incubation with AAGP™. Untreated or AAGP™-treated PPCs are fluorescently labelled and placed between retinal explants and RPE for ten days (n=4). Live PPCs are separated by Fluorescence-Activated Cell Sorting and the proportion of cells surviving after 10 days of co-culture was calculated. Percent cell survival of untreated and AAGP-treated PPCs was plotted ( ? ) and for each condition the average±SEM is represented by a thick black line.
To determine whether AAGP™ improves PPC survival in the ex vivo system, PPC cell viability is assessed with and without pre-treating cell grafts with AAGP™ for 24 hours prior to inclusion within the ex vivo system. PPCs are labelled with 20 μM CellTrace™ Far Red DDAO-SE (Life Technologies). […] After 10 days, the components of the co-culture system are enzymatically dissociated into single cell suspensions and the number of viable PPCs is assessed by Fluorescence-Activated Cell Sorting (FACS; Influx Sorter; BD Biosciences).
Finally, the viability of PPCs in the ex vivo system is tested. […] Ten days later, the co-cultured components were dissociated into single cells and viable PPCs (labeled red) were separated by Fluorescence activated cell sorting (FACS, FIG. 3). The proportion of live cells remaining after 10 days of co-culture is calculated. […]
For orientation: A flow cytometer gives signals particle by particle.

Another data set has as its system PPCs. Kind of data set: Toxicity of AAGP to PPCs (unpublished data). The class given is cell-based, human. The following applies: 4 mg/ml. The method, then:
Now referring to FIG. 1, within the ex vivo system, rat neurosensory retinal explants are incubated upon human embryonic stem cells (hESC) derived retinal pigment epithelium (RPE). Neurosensory retina was obtained from the S334ter-4 model of retinal degeneration (Chen et al, 1995) and cultured within the system for 10 days (for detailed experimental design see Yanai et al., 2015). Rodent retinal tissue collection was carried out with approval of the Animal Care Committee at the University of British Columbia and in accordance with the Association for Research in Vision and Ophthalmology Statement for the Use of Animals in Ophthalmic and Vision Research. Throughout the present study, AAGP™ was used at 4 mg/ml, after it was confirmed it was not toxic to PPCs at this concentration (unpublished data).

For data set [3], the system named is COX-2 expression in stressed ARPE-19 cells. Briefly: COX-2 expression by RT-qPCR in ARPE-19 cell stress assay (IL-1β followed by ATP). The data set is classed as cell-based, human. The following applies: stressed ARPE-19 cells (17 ng/ml IL-1β 8 h, then 5 mM ATP 1 h) in presence of 4 mg/ml AAGP; normalized to GAPDH; n=4. The method, then:
as §1, with “GAPDH. (C) Cultured PPCs were treated with increasing amounts of PGE2 for 48 hours, followed by the MTT assay (n=4).” for “GAPDH.”
To determine whether AAGP™ inhibits COX-2 expression, ARPE-19 cells (Dunn et al., 1996) are treated with 17 ng/ml Interleukin 1β (IL-1β; Sigma; Lukiw et al., 2006) for 8 hours and then added 5 mM ATP for 1 hour to further induce cell stress (Sigma; Mehta et al., 2001). […] COX-2 expression is assessed using Reverse Transcription Quantitative Polymerase Chain Reaction (RT-qPCR) with the TaqMan® primer/probe system, Fast Advanced Master Mix and the ViiA™ 7 Real Time PCR system (Applied Biosystems). […]

Data set [4] deals with photoreceptor precursor cells (PPCs). Kind of data set: MTT assay of cultured PPCs treated with increasing amounts of PGE2. The following applies: PPCs cultured 48 hours with increasing PGE2, up to 50 μM; n=4. The data set is classed as cell-based, human. The method, then: as §1
as §2, with “(Sigma). […]” for “(Sigma).”
On the technique in general: Formazan colour is commonly taken as a measure of viable cells.

With `C[C@H](NC(=O)[C@H](C)NC(=O)[C@@H](N)CCCCNC(=O)C(F)(F)C1(O)O[C@H](CO)[C@H](O)[C@H](O)[C@H]1O)C(=O)O` (some centres unmarked) [AAGP™], the “amount of PGE2 in explant medium” value in data set [1] was ~7.5 pg/mL. For the same compound, the “increase in average cell viability vs. untreated PPCs” value in data set [2] was ~3 fold. In the data set with PPCs, the “toxicity to PPCs” value is listed as “not toxic”. In data set [3], the “decline in COX-2 expression” value was “at least 13.3±4.5 fold”.
On to `CCCCC[C@H](O)/C=C/[C@H]1[C@H](O)CC(=O)[C@@H]1C/C=C\CCCC(=O)O` [PGE2, prostaglandin E2], for which the “reduction of cell survival (MTT)” value in data set [4] is “up to 44%”.
